Experimental findings from PubChem BioAssay (NCI) are described below.

Some test systems named below: UACC-257 melanoma; NCI-H460 lung; U251 CNS; SF-268 CNS; UACC-62 melanoma; SK-OV-3 ovarian; MALME-3M melanoma; DU-145 prostate.
Experiment in all cases: growth of human tumour cells (NCI), 48 h

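Cells were grown in 96-well plates and exposed to each compound for 48 hours at five concentrations; endpoints were interpolated linearly between bracketing concentrations, or set to the highest concentration if not reached. Abbreviation: GI50, concentration required for 50% inhibition of growth. The concentration for full growth arrest is given as TGI.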

`CC(=O)C1=C(C)N(Cc2ccccc2)C2(O)C=CC(=O)C3=C(O)c4ccccc4C(=O)C312` (stereo not given): the GI50 in the experiment on UACC-257 melanoma is 5.77 µM; in the experiment on NCI-H460 lung, 7.24 µM; with U251 CNS, 3.38 µM; in the experiment with SF-268 CNS, 10.4 µM; in the experiment with UACC-62 melanoma, 2.64 µM; in the experiment on SK-OV-3 ovarian it was 18.3 µM. Besides, the values for the GI50 in the experiment on MALME-3M melanoma and in the experiment on DU-145 prostate were 1.44 µM and 4.57 µM, respectively. Moreover, the TGI was found to be 30.5 µM with UACC-257 melanoma; 41.3 µM with NCI-H460 lung; 10.2 µM in the experiment with U251 CNS; 29.1 µM in the experiment on SF-268 CNS; 7.64 µM with UACC-62 melanoma; 42.4 µM with SK-OV-3 ovarian. For the same compound, the results for the TGI in the experiment on MALME-3M melanoma and with DU-145 prostate were 2.97 µM and 19.7 µM, respectively.
Consider `Cc1[nH]nc(C(F)(F)F)c1Cc1sc2c(c1C(=O)N1C[C@](C)(O)CO1)c(=O)n(C)c(=O)n2C(C)C`, for which the GI50 in the experiment on NCI-H460 lung, with U251 CNS, in the experiment with SF-268 CNS, in the experiment with UACC-62 melanoma, with SK-OV-3 ovarian and with MALME-3M melanoma was over 100 µM in each case. The GI50 in the experiment on DU-145 prostate is over 100 µM. Further, the TGI with NCI-H460 lung, with U251 CNS, in the experiment with SF-268 CNS, with UACC-62 melanoma, with SK-OV-3 ovarian and in the experiment with MALME-3M melanoma was over 100 µM throughout. The compound also had a TGI in the experiment on DU-145 prostate of over 100 µM.
For the compound `NS(=O)(=O)c1ccc(-n2nc3c(c2-c2cccs2)Cc2ccccc2-3)cc1`, the GI50 with UACC-257 melanoma is 23.2 µM; in the experiment with NCI-H460 lung, over 100 µM; in the experiment on U251 CNS it was 12.3 µM; in the experiment with SF-268 CNS, over 100 µM; with UACC-62 melanoma it was 11.5 µM; with SK-OV-3 ovarian, 37.7 µM. In the experiment with DU-145 prostate, the GI50 is 10.6 µM. Moreover, the TGI is 44.2 µM with UACC-257 melanoma; over 100 µM in the experiment on NCI-H460 lung; 25.8 µM in the experiment on U251 CNS; over 100 µM with SF-268 CNS; 23.7 µM in the experiment on UACC-62 melanoma; over 100 µM in the experiment on SK-OV-3 ovarian. The same compound returned a TGI with DU-145 prostate of 24 µM.
Turning to `O=C(Nc1ccc(Cl)c(Cl)c1)c1ccc(NC2=C(Cl)C(=O)N(Cc3ccccc3)C2=O)cc1`, the GI50 was 3.67 µM in the experiment on UACC-257 melanoma; 9.32 µM with NCI-H460 lung; 8.26 µM in the experiment on SF-268 CNS; 4.93 µM with UACC-62 melanoma; 21.5 µM with SK-OV-3 ovarian; 11.2 µM in the experiment on MALME-3M melanoma. In addition, the GI50 with DU-145 prostate was 4.32 µM. The TGI in the experiment with UACC-257 melanoma turned out to be 11.9 µM; in the experiment with NCI-H460 lung it was 22.8 µM; with SF-268 CNS, 24 µM; in the experiment with UACC-62 melanoma, 17.7 µM; in the experiment on SK-OV-3 ovarian it was 44 µM; in the experiment on MALME-3M melanoma, 24.8 µM. The compound also had a TGI with DU-145 prostate of 16.6 µM.
`Cc1ccsc1C(NC(=O)c1ccccc1)c1cc(Cl)c2cccnc2c1O` (stereo not given): the GI50 in the experiment on NCI-H460 lung is 0.341 µM; with U251 CNS, 0.318 µM; in the experiment on SF-268 CNS it was 0.6 µM; in the experiment on UACC-62 melanoma it was 0.339 µM; with SK-OV-3 ovarian, 0.617 µM; in the experiment on MALME-3M melanoma it was 1.1 µM. Also, the GI50 in the experiment on DU-145 prostate was 0.869 µM. Besides, the TGI was determined as 2.03 µM in the experiment with NCI-H460 lung; 10.4 µM in the experiment on U251 CNS; 12.1 µM in the experiment on SF-268 CNS; 5.22 µM in the experiment with UACC-62 melanoma; 7.96 µM with SK-OV-3 ovarian; 13.9 µM with MALME-3M melanoma. The compound further yielded a TGI in the experiment on DU-145 prostate of 14.2 µM.
As to `COc1cccc(N2CC(O)=C(c3nc4ccccc4s3)C2=N)c1`, the GI50 with NCI-H460 lung was 0.24 µM; in the experiment on U251 CNS it was 0.42 µM; in the experiment with SF-268 CNS, 1.51 µM; in the experiment with UACC-62 melanoma it was 0.239 µM; in the experiment with SK-OV-3 ovarian, 0.702 µM; with MALME-3M melanoma it was 0.266 µM. Also, in the experiment on DU-145 prostate, the GI50 was 1.75 µM. The TGI was over 100 µM in the experiment with NCI-H460 lung; 19.5 µM with U251 CNS; over 94.5 µM with SF-268 CNS; 2.61 µM in the experiment with UACC-62 melanoma; 33.5 µM with SK-OV-3 ovarian; over 100 µM in the experiment on MALME-3M melanoma. Further, the TGI in the experiment on DU-145 prostate was over 100 µM.
Consider `CC(=O)C(CN1C(=O)c2ccccc2C1=O)C(C)=O`, for which the TGI in the experiment on UACC-257 melanoma, in the experiment on NCI-H460 lung, with U251 CNS, with SF-268 CNS, in the experiment on UACC-62 melanoma and with SK-OV-3 ovarian was over 100 µM throughout. The compound also displayed a TGI in the experiment on DU-145 prostate of over 100 µM.
Regarding `Oc1c(C(Nc2ccccn2)c2ccccc2)ccc2cccnc12` (stereo not given), the TGI in the experiment on UACC-257 melanoma is over 100 µM; in the experiment with U251 CNS it was 12.3 µM; in the experiment on SF-268 CNS, 25.3 µM; in the experiment with UACC-62 melanoma, 22.2 µM; in the experiment on SK-OV-3 ovarian, 63.8 µM; with MALME-3M melanoma, 22 µM. This compound gave a TGI in the experiment with DU-145 prostate of over 100 µM.
In the case of `[N-]=[N+]=C(C(=O)CN1CCCC1=O)S(=O)(=O)c1ccccc1`, the TGI with UACC-257 melanoma, with NCI-H460 lung, in the experiment on U251 CNS, with SF-268 CNS, with UACC-62 melanoma and in the experiment with MALME-3M melanoma was over 100 µM each time. In the experiment with DU-145 prostate, the TGI is over 100 µM.
Regarding `CN1C(=O)N(C)C2C1NC(=S)N2/N=C/C=C/c1ccccc1[N+](=O)[O-]` (stereo not given), the GI50 in the experiment with UACC-257 melanoma was over 100 µM; with NCI-H460 lung, 0.701 µM; with SF-268 CNS it was 2.67 µM; in the experiment with UACC-62 melanoma it was 0.419 µM; in the experiment on SK-OV-3 ovarian, 1.18 µM; in the experiment with MALME-3M melanoma, over 100 µM. Also, the GI50 in the experiment on DU-145 prostate is 3.81 µM. Also, the TGI with UACC-257 melanoma, with NCI-H460 lung, in the experiment on SF-268 CNS, in the experiment with UACC-62 melanoma, in the experiment on SK-OV-3 ovarian and in the experiment on MALME-3M melanoma was over 100 µM throughout. Moreover, the TGI in the experiment on DU-145 prostate was over 100 µM.
`CCCCCCC(=O)NC1=C(N2CC2)C(=O)C(NC(=O)CCCCCC)=C(N2CC2)C1=O`: the GI50 was 0.677 µM with NCI-H460 lung; 2.88 µM with U251 CNS; 2.23 µM in the experiment with SF-268 CNS; 1.87 µM with UACC-62 melanoma; 13 µM with SK-OV-3 ovarian; 1.6 µM in the experiment on MALME-3M melanoma. In the experiment on DU-145 prostate, the GI50 is 1.13 µM. Moreover, the TGI was over 100 µM in the experiment with NCI-H460 lung; over 100 µM in the experiment on U251 CNS; over 100 µM in the experiment on SF-268 CNS; over 100 µM with UACC-62 melanoma; over 100 µM in the experiment with SK-OV-3 ovarian; 4.98 µM in the experiment with MALME-3M melanoma. This compound registered a TGI in the experiment on DU-145 prostate of over 100 µM.
